Columns and labels:
[1] = Microsomal stability assay, human liver microsomes; format: in vitro ADME; conditions: pH 7.4
in vitro = in vitro ADME; conditions: rat, microsomes, pH 7.4
wild-type HIV-1 NL4-3 = experiment: Anti-HIV activity against wild-type HIV-1 NL4-3 infection of TZM-bl cells; format: cell-based; conditions: HIV-1 NL4-3 wild-type
TZM-bl cells = conditions: read-out: CC50, cytotoxicity to 50% of cells, published previously; cited from earlier work

Structure (SMILES) | microsomal CLint at 1 μM [1] | microsomal CLint at 1 μM (in vitro) | Selectivity index (SI), ratio of CC50/EC50 (wild-type HIV-1 NL4-3) | CC50 (TZM-bl cells)
COC(=O)c1cc(N)c(Nc2ccc(C#N)cc2)cc1Oc1c(C)cc(/C=C/C#N)cc1C [Compound 9a] | – | – | >8465 | –
Cc1cc(/C=C/C#N)cc(C)c1Oc1cc(Nc2ccc(C#N)cc2)c(N)cc1[N+](=O)[O-] [Compound 3] | 150 µL/min/mg | 50 µL/min/mg | – | > 47.1 µM
Cc1cc(/C=C/C#N)cc(C)c1Nc1ccnc(Nc2ccc(C#N)cc2)n1 [Compound 2, rilpivirine] | 200 µL/min/mg | 57 µL/min/mg | – | –

The next lines start with results.

microsomal CLint at 1 μM [1] | microsomal CLint at 1 μM (in vitro) | Structure (SMILES) | Selectivity index (SI), ratio of CC50/EC50 (wild-type HIV-1 NL4-3) | CC50 (TZM-bl cells)
230 µL/min/mg | – | Cc1cc(/C=C/C#N)cc(C)c1Oc1cc(Nc2ccc(C#N)cc2)c(N)cc1CO [Compound 9e] | – | –
200 µL/min/mg | 57 µL/min/mg | Cc1cc(/C=C/C#N)cc(C)c1Oc1cc(Nc2ccc(C#N)cc2)c(N)cc1C(N)=O [Compound 9c] | – | –

— article PMC3309038 (Bioorganic & medicinal chemistry letters, 2012)
